The values that follow come from article PMC4460047 (PLoS ONE, 2015).

A short description of series [1]: Chemical stability in phosphate buffered saline pH 7.4. In kind it is physicochemical. The following applies: percent remaining after 6 h of incubation at 37°C in PBS buffer pH 7.4. The protocol: (§1) The chemical and metabolic stability of PEA and all prodrugs were studied by incubating each compound (5 μL of a […] solution in DMSO, or DMSO as control) with 495 μL of 10 mM phosphate buffered saline pH 7.4 for chemical stability, 80% v/v rat plasma or 20% w/v rat liver homogenate prepared accordingly to previously described procedures for metabolic stability, reaching a final concentration of 50 nm for the test compound.
(§2) Rat plasma and liver samples were pre-incubated at 37°C for 10 min before adding the compounds. After incubation for different time periods (0, 15, 30, 60, 120, 240 and 360 min), samples were deproteinized by adding 100 μL of acetonitrile with 75 nmol L^-1 IS (PEA-d4). The samples were centrifuged (14 000 g, 10 min, 4°C), and the supernatants were analyzed by HPLC–ESI–MS/MS. For each tested compound, a multiple reaction monitoring (MRM) ESI–MS/MS method was set up in order to monitor the relative concentration of compound and released PEA at the different incubation times, compared to the time t = 0, in rat plasma and liver homogenate.

Series [2] is described as follows: Stability and PEA release in 80% v/v rat plasma. The series is classed as in vitro ADME. As to conditions: for half-life at 50 nM: rat, pH 7.4, 80% v/v rat plasma, 50 nm compound, read-out: Rat Plasma Compd t 1/2. The protocol: as §1, §2
Cmax and tmax in rat plasma were read from the raw data as the coordinates of the highest concentration observed. A Thermo TSQ Quantum triple-quadrupole mass spectrometer (Thermo Italia, Milan, Italy) with heated electrospray ionization (H-ESI) ion source was used for mass detection and analysis. Mass spectrometric analyses were done in positive ion mode. H-ESI interface parameters were set as follows: probe middle (D) position; capillary temperature 270°C; spray voltage 3.0 kV. Nitrogen was used as nebulizing gas at the following pressure: sheath gas 35 psi; auxiliary gas 15 arbitrary units (a.u.). Argon was used as the collision gas at a pressure of approximately 1.5 mtorr (1 torr = 133.3 Pa). For quantitative analysis, the following parent ion → product ions transitions were selected: PEA (1): m/z 300.2 → m/z 62.3 (tube lens 60 V; collision energy 19 eV); PEA-d4 (Internal Standard): m/z 304.2 → m/z 66.3 + m/z 287.2 (tube lens 72 V; collision energy 15, 12 eV). MRM transitions, tube lens voltages and collision energies for compounds 3–5, 7–9, 19–24, 26–31, and 33 are reported in the S1 File. […] The coefficients of correlation (r^2) were >0.99 for all curves. The LOQ was 1 nmol mL^−1 for all analytes. Extraction efficiency was determined by comparing the peak area ratio of spiked samples at three concentration levels (low, intermediate, and high) to those of extracted charcoal treated blank plasma spiked with the corresponding concentrations. The mean extraction recovery ranged from 109% to 91% for all compounds. The specificity of the assay was evaluated by comparison of HPLC–ESI–MS/MS chromatograms of the analytes at the LOQ to those of charcoal treated blank plasma samples in triplicate.

The nature of series [3]: Stability in 20% w/v rat liver homogenate. In kind it is in vitro ADME. The following applies: for half-life at 50 nM: rat liver homogenate, read-out: Rat Liver Compd t 1/2. The protocol: as §1, §2
Series [4] is described as follows: Plasma levels after oral administration to Wistar rats. In kind it is in vivo, rat. As to conditions: for AUC(0-t) / concentration at 15 min / concentration at 30 min / concentration at 60 min / concentration at 120 min / concentration at 240 min / concentration at 360 min / concentration at 480 min: male, rat, plasma, po, n = 9; for AUC(0-t): Wistar, administered compound, mean±SEM, read-out: AUC0- 480 (converted); for AUC(0-t) / Cmax of administered compound in rat plasma / Time of Cmax of administered compound in rat plasma: p.o.; for concentration at 15 min / concentration at 30 min / concentration at 60 min / concentration at 120 min / concentration at 240 min / concentration at 360 min / concentration at 480 min: p.o. 145 mg kg-1, Wistar rats, mean ± SEM; for concentration at 15 min: read-out: Prodrug Conc in plasma, 15 min; for concentration at 30 min: read-out: Prodrug Conc in plasma, 30 min; for concentration at 60 min: read-out: Prodrug Conc in plasma, 60 min; for concentration at 120 min: read-out: Prodrug Conc in plasma, 120 min; for concentration at 240 min: read-out: Prodrug Conc in plasma, 240 min; for concentration at 360 min: read-out: Prodrug Conc in plasma, 360 min; for concentration at 480 min: read-out: Prodrug Conc in plasma, 480 min; for Cmax of administered compound in rat plasma / Time of Cmax of administered compound in rat plasma: PEA 100 mg kg-1, 20, 28 145 mg kg-1. The protocol: Twenty-seven male Wistar rats (Charles River Laboratories, Italy), 150–250 g in weight, were used in the study. Number of animals was calculated by G-power a priori analysis (α = 0.05 and β = 0.05). Animals were housed in group in policarbonate cages (Tecniplast, Italy) in a conventional facility with controlled temperature 22±1°C, a relative humidity of 55±5%, and a 12 h light/dark cycle (6:00 am to 6:00 pm). The rats were provided standard pellet diet (4RF21 GLP Mucedola, Italy) and water ad libitum throughout the study. The experiments were started only after acclimatization of animals to the laboratory conditions. Before the experiments, rats were fasted for 18 h, with free access to drinking water. Animals were randomized in three experimental groups (nine animals for each group) receiving respectively L-Val-PEA (20), D-Val-PEA (28) and PEA (1).
The day of the experiments substances were turned into a corn oil suspension, after ultrasound and vortexing and they were administered to rats between 8.00 and 10.00 am by gastric gavage at the equimolar doses of 145 mg kg^-1 for L- and D-Val-PEA (20, 28) and 100 mg kg^-1 of PEA (1). Blood samples were collected via sub-tongue puncture from each anaesthetized rat (2% isofluran in air) to minimize any suffering. Blood samples of 0.2 mL were collected before treatment and at 15, 30, 60, 120, 240, 360 and 480 min post-dosing into EDTA-treated tubes (Sarstedt, Germany), immediately centrifuged (5000 rpm, 10 min, 4°C; refrigerated microcentrifuge Z 216 MK, Hermle LaborTechnik). Resulting plasma was immediately processed by protein precipitation with ice-cold acetonitrile containing the IS 75 nmol L^-1 (PEA-d4) and analyzed as previously described. AUC values were calculated employing the software add-ons of Microsoft Excel.

For series [5] the following is noted: Beagle dogs, oral 30 mg kg-1; cited from earlier work.
Series [6] relates to amidase activity in rat liver homogenate. In kind it is biochemical. The source says:
Fig 8 Role of amidase activity on compound degradation in rat liver homogenate.

A further series relates to liver FAAH. Set-up: method as in PMID 17217969. The following applies: cited from earlier work.
[7] abbreviates: rat, 20% w/v rat liver homogenate, 37°C.
Where [8] appears, read: after addition of 25 pmol of PEA, 80% v/v rat plasma.

By share remaining is commonly meant the share of the starting amount still present when the sample was taken. `CCCCCCCCCCCCCCCC(=O)NCCOC(=O)[C@H](N)C(C)C.Cl` [compound 28, 2-(Palmitoylamino)ethyl D-valinate hydrochloride]: the “%Compd at 6 h, pH 7.4” value in series [1] is 87 ± 2%. Moreover, the “Rat plasma half-life relative to L-Val-PEA (20)” value in series [2] (rat plasma) is “over 6 fold”. Further, in series [2] (80% v/v rat plasma, 37°C), the half-life at 50 nM came to 173 ± 4 min. Also, the amount remaining at 2 h, 50 nM in series [3] (rat, 20% w/v rat liver homogenate, 37°C, 2 h, read-out: Percent remaining after 2 h incubation in rat liver homogenate) was 67 ± 9%. Moreover, in series [4], the AUC(0-t) was 231 ng·h/mL, the concentration at 15 min came out at 907 nM, the concentration at 30 min turned out to be 280 nM and the concentration at 60 min stood at 65.9 nM. Besides, in series [4], the concentration at 120 min worked out at 56.4 nM, the concentration at 240 min is 39.9 nM, the concentration at 360 min turned out to be 11.4 nM and the concentration at 480 min was found to be 10.1 nM. In series [4], the “Cmax of administered compound in rat plasma” value is on record as 907 nm and the “Time of Cmax of administered compound in rat plasma” value (“Time of Cmax … in rat plasma” below) is recorded as 15 min.
With `CCCCCCCCCCCCCCCC(=O)NCCOC(=O)[C@@H](N)C(C)C.Cl` [compound 20, 2-(palmitoylamino)ethyl L-valinate hydrochloride], in series [1], the “%Compd at 6 h, pH 7.4” value amounted to 91 ± 2%. Further, the “Increase in plasma half-life relative to L-Ala-PEA” value in series [2] (rat plasma) is 46 fold. Moreover, in series [2] (80% v/v rat plasma, 37°C), the half-life at 50 nM was found to be 46 ± 3 min. In series [3] (setting [7]), the half-life at 50 nM stood at 26 ± 1 min. In series [4], the AUC(0-t) is 129 ng·h/mL, the concentration at 15 min was 612 nM, the concentration at 30 min worked out at 212 nM and the concentration at 60 min worked out at 35.8 nM. Also, in series [4], the concentration at 120 min stood at 22.2 nM, the concentration at 240 min was 7.1 nM, the concentration at 360 min turned out to be 2.7 nM and the concentration at 480 min worked out at 9.3 nM. In series [4], the “Cmax of administered compound in rat plasma” value turned out to be 612 nm and the “Time of Cmax … in rat plasma” value was 15 min.
As for `CCCCCCCCCCCCCCCC(=O)NCCO` [compound 1, Palmitoylethanolamide, reference compound], the “%Compd at 6 h, pH 7.4” value in series [1] is 95 ± 1%. For the same compound, the “%Compd at 6 h, pH 7.4” value in series [1] (listed as PEA) is recorded as 95%. In series [2] (setting [8]), the “PEA concentration in rat plasma after 1 h” value was 56.2 ± 4.3 nM, the “PEA concentration in rat plasma after 6 h” value worked out at 44.0 ± 3.2 nM and the “PEA concentration in rat plasma at starting point” value was 71.9 ± 2.1 nM. Also, in series [2] (pH 7.4, 80% v/v rat plasma, 37°C, 6 h, read-out: Percent remaining after 6 h incubation in rat plasma), the amount remaining at 6 h, 50 nM is 70 ± 2%. Moreover, the “PEA concentration in rat liver homogenate after 120 min” value in series [3] (no detectable basal PEA levels) came to 4.0 ± 1.2 nM. In addition, in series [3] (setting [7]), the half-life at 50 nM was ~25 min. For the same compound, in series [4], the AUC(0-t) is 109 ng·h/mL, the “Cmax of administered compound in rat plasma” value is 420 ± 132 nm and the “Time of Cmax … in rat plasma” value turned out to be 15 min. Also, in series [4] (p.o. PEA 100 mg kg-1, 15 min), the “Increase of PEA basal plasma values at Cmax” value came out at 20 fold. In series [5], the “Increase in basal plasma levels at Cmax” value is on record as “five-fold increase” and the “Time of maximal plasma concentration (Cmax)” value was 1 to 2 h.
Usually IC50 stands for the concentration that inhibits the measured activity by half. Take `NC(=O)c1cccc(-c2cccc(OC(=O)NC3CCCCC3)c2)c1` [URB597, cyclohexylcarbamic acid 3'-carbamoylbiphenyl-3-yl ester]: in series [6] (URB597 10 μm pre-incubation), the “Effect on PEA hydrolysis” value is listed as “complete inhibition of PEA hydrolysis” and the “Effect on conversion of 20 into PEA” value is “quantitative conversion of 20 into PEA”. Further, in series [6] (URB597 100 nm, 10 min pretreatment, p<0.05), the “Effect on PEA concentrations vs control incubations of PEA and 20” value was “partial, but statistically significant, increase of PEA concentrations”. For the same compound, the half-maximal inhibitory concentration (IC50) with liver FAAH is ~3 nM.
